Experimental data: PMC7413297 (Journal of immunology (Baltimore, Md. : 1950), 2020)
Read-outs that look alike come from different tables or passages of the source. Ends that are not written are not given here. Peptide text beside a SMILES is read from it.

Target: HLA A*02:01 class I molecules (Homo sapiens, UniProt P04439, D140Y/D185E/D98H/E176V/E277Q/G131W/G231S/I119V/I121R/I166T/I218V/L300P/L318F/N151K/N90K/P208A/P217A/Q86G/Q94H/R138H/R169H/T345S)
Experiment: MHC-peptide competitive binding assay
[1] = as standard assay but excluding protease inhibitors
[2] = reducing conditions, 1 mM 2-ME added
[3] = IC50 2-ME, reducing conditions, 1 mM 2-ME added
[4] = IC50 No Protease Inhibitors, as standard assay but excluding protease inhibitors

Row | Molecule | IC50 No Protease Inhibitors [1] | IC50 2-ME [2] | IC50 [nM] | IC50 [3] [nM] | IC50 [4] [nM]
1 | 1LBETBLIV | 14 ng/mL | 24 ng/mL | – | – | –
2 | CC[C@H](C)[C@H](N)C(=O)N[C@@H](CC(C)C)C(=O)N[C@@H](CS)C(=O)N[C@@H](CCC(=O)O)C(=O)N[C@H](C(=O)N[C@@H](CS)C(=O)N[C@@H](CC(C)C)C(=O)N[C@H](C(=O)N[C@H](C(=O)O)C(C)C)[C@@H](C)CC)[C@@H](C)O [reference compound] (H-ILCETCLIV-OH) | – | – | 458 | 304 | 323
3 | CC[C@H](C)[C@H](N)C(=O)N[C@@H](CC(C)C)C(=O)N[C@@H](CS)C(=O)NCC(=O)N[C@H](C(=O)N[C@@H](CS)C(=O)N[C@@H](CC(C)C)C(=O)N[C@H](C(=O)N[C@H](C(=O)O)C(C)C)[C@@H](C)CC)[C@@H](C)O [reference compound] (H-ILCGTCLIV-OH) | – | – | 206 | 244 | 582
4 | ACDPHSGHFV [reference compound] | – | – | – | 12600 | 3090
5 | BISSBNPNL | 604 ng/mL | 1,260 ng/ml | – | – | –
6 | BISSBNPNP | 17,100 ng/ml | 13,400 ng/ml | – | – | –
7 | BISSCNPNL | 573 ng/mL | 250 ng/mL | – | – | –
8 | BQWGRLWQL | 121 ng/mL | 93 ng/mL | – | – | –
9 | CISSBNPNL | 1,047 ng/ml | 618 ng/mL | – | – | –
10 | CQWGRLWQL [reference compound] | – | – | 1200 | 130 | 952
11 | HMTEVVRRC [reference compound] | – | – | 9010 | 907 | 1010
12 | ILBETCLIV | 58 ng/mL | 82 ng/mL | – | – | –
13 | ILBGTBLIV | 733 ng/mL | 1,547 ng/ml | – | – | –
14 | ILCETBLIV | 104 ng/mL | 93 ng/mL | – | – | –
15 | ILCGTBLIV | 839 ng/mL | 885 ng/mL | – | – | –
16 | RLPRIFBSB | 7.2 ng/mL | 14 ng/mL | – | – | –
17 | RLPRIFCSB | 11 ng/mL | 27 ng/mL | – | – | –
18 | SCSRAIPQV [reference compound] | – | – | 1530 | 207 | 551
19 | SCSRAVPQV [reference compound] | – | – | 12300 | 2480 | 7350
20 | SLLMWITQB | 94 ng/mL | – | – | – | –
21 | VLPDVFIRB | 3.3 ng/mL | 2.5 ng/mL | – | – | –
22 | VLPDVFIRC [reference compound] | – | – | 454 | 30.2 | 121
